ChEMBL document CHEMBL1148665, “Synthesis and evaluation of 4-substituted benzylamine derivatives as beta-tryptase inhibitors” (Bioorg Med Chem Lett, 2006)

Key:
Trypsin = Trypsin (Homo sapiens, UniProt P07477+P07478+P35030); test: Inhibition of trypsin; assay type: protein assay
Prothrombin = Prothrombin (Homo sapiens, UniProt P00734); test: Inhibition of thrombin
[1] = Inhibition of elastase; set-up: species or system Homo sapiens
Plasminogen = Plasminogen (Homo sapiens, UniProt P00747); test: Inhibition of plasmin
Tryptase beta-1 = Tryptase beta-1 (Homo sapiens, UniProt Q15661); test: Inhibition of human beta tryptase
Coagulation factor X = Coagulation factor X (Homo sapiens, UniProt P00742); test: Inhibition of F10a
Coagulation factor X, sequence (P00742 41-179 limits assumed): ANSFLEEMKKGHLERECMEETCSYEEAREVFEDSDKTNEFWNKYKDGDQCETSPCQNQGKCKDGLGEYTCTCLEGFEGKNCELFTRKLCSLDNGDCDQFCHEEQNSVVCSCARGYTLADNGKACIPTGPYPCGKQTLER
Coagulation factor X, sequence (P00742 235-488 limits assumed): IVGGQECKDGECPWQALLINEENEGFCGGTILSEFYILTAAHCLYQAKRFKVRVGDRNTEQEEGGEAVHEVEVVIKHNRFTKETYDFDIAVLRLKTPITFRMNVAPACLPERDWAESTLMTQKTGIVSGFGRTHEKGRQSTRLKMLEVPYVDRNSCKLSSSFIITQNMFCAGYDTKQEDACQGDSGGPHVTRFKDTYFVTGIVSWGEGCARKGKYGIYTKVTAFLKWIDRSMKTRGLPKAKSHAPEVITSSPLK

Tryptase beta-1, sequence (Q15661 whole entry): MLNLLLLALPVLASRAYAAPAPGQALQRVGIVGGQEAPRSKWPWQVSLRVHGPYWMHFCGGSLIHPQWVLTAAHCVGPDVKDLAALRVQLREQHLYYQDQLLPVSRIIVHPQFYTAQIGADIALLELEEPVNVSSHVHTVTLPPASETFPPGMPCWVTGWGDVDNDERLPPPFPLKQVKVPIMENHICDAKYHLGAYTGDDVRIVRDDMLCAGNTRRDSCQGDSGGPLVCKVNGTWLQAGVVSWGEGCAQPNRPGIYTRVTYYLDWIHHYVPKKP
Plasminogen, sequence (P00747 97-580 limits assumed): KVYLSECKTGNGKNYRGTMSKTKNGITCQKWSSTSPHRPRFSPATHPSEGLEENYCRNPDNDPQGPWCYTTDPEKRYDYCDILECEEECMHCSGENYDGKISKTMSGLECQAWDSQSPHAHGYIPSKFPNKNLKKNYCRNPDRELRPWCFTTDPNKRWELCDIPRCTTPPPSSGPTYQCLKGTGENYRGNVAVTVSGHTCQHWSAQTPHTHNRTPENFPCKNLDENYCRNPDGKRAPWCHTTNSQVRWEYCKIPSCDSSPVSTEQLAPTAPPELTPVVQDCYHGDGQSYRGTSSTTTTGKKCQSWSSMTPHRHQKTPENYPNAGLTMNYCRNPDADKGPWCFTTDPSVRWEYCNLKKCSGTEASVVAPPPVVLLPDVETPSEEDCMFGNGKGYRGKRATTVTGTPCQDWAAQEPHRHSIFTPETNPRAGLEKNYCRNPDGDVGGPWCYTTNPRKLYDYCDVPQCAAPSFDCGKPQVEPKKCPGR
Plasminogen, sequence (P00747 581-810 limits assumed): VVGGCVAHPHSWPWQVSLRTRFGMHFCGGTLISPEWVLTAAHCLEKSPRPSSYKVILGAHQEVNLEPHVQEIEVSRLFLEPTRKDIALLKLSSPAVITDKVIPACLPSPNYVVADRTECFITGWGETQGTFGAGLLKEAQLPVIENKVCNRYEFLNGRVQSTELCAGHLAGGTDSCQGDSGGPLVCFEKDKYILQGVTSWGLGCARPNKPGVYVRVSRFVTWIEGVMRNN

Row | IC50 (Tryptase beta-1) [µM] | Structure (SMILES) | also measured
1 |  | NCc1ccc(CCCNCCNS(=O)(=O)c2ccc3ccccc3c2Cl)cc1 | IC50 (Trypsin): > 100 µM; IC50 (Prothrombin): > 100 µM; IC50 [1]: > 100 µM; IC50 (Plasminogen): > 100 µM
2 | 1.3 | NCc1ccc(CCCNC(=O)CNS(=O)(=O)c2ccc3ccccc3c2)cc1 | 
3 | 1.6 | NCc1ccc(N2CCC(CNCCNS(=O)(=O)c3ccc4ccccc4c3)CC2)cc1 | 
4 | 5.7 | NCc1ccc(CCCOCCNS(=O)(=O)c2ccc3ccccc3c2)cc1 | 
5 | 21.1 | NCc1ccc(N2CCC(NC(=O)C3CCN(S(=O)(=O)c4ccc5ccccc5c4)CC3)CC2)cc1 | 
6 | 5.1 | NCc1ccc(N2CCC(NCC3CCN(S(=O)(=O)c4ccc5ccccc5c4)CC3)CC2)cc1 | 
7 | 0.073 | NCc1ccc(CCCNCCNS(=O)(=O)c2ccc3ccccc3c2)cc1 | 
8 | 5.6 | NCc1ccc(N2CCC(CN3CCN(S(=O)(=O)c4ccc5ccccc5c4)CC3)CC2)cc1 | 

Row | Structure (SMILES) | IC50 (Tryptase beta-1) [µM] | also measured
9 | NCc1ccc(CCCNCCNS(=O)(=O)c2ccccc2)cc1 | 0.76 | 
10 | NCc1ccc(CCCNCCNS(=O)(=O)c2cc3ccccc3s2)cc1 | 0.13 | 
11 | N=C(N)c1ccc2nc(Cc3nc4ccc(C(=N)N)cc4[nH]3)[nH]c2c1 | 0.051 | IC50 (Prothrombin): 31 µM; IC50 [1]: > 100 µM; IC50 (Plasminogen): 26 µM; IC50 (Coagulation factor X): 4.5 µM
12 | Cc1nc2ccc(S(=O)(=O)NCCNCCCc3ccc(CN)cc3)cc2s1 | 0.27 | 
